Test [1] concerns the target T1, human serotonin 5-HT2B receptor (Homo sapiens, UniProt P41595).
T1 construct: expressed in transfected cells; host or cells: HEK293 (transient transfection)
Briefly: Stimulating activities of human serotonin 5-HT2B receptor, intracellular calcium in forced expression HEK293 cells. The class given is cell-based. Conditions: intracellular calcium concentration, mean value (n=2). The protocol:
Identification Test of Stimulating Activities on Human Serotonin 5-HT2B Receptor
Mostly confluent HEK293 cells were washed with PBS, followed by exfoliation with 0.05% trypsin-EDTA and the cells were suspended in D-MEM liquid medium (phenol red-free, low glucose, pyruvic acid were contained) containing fetal bovine serum (final concentration: 10%) and GlutaMax (registered mark) I (final concentration: 2 mM). The suspension was scattered at 5×10^4 cells/100 μL/well on poly-D-lysine-coated 96-well microplate (BD BioCoat (registered mark)). The scattered cells were cultured in 5% CO2 incubator at 37° C. Human serotonin 5-HT2B receptor expression plasmid was transfected in that cells according to the procedure seeing below.
Human serotonin 5-HT2B receptor expression plasmid and Lipofectamine (registered mark) 2000 (Invitrogen) were diluted to 0.008 g/L and 0.016 g/L each other with OPTI-MEM (registered mark) I Reduced-Serum Medium and incubated at room temperature. After incubation, the human serotonin 5-HT2B receptor expression plasmid-diluted liquid and Lipofectamine (registered mark) 2000-diluted liquid were mixed at an equal volume and incubated at room temperature to form a complex. The complex was dispensed at 50 μL/well on the cells prepared above. The cells were incubated in 5% CO2 incubator at 37° C. for 2 days. After incubation, the cells were used as human serotonin 5-HT2B receptor forced expression cells for measurement of intracellular calcium concentration.
The stimulating activities of human serotonin 5-HT2B receptor was determined by measuring of intracellular calcium concentration. The 30 mM dimethyl sulfoxide (DMSO) solution contained test compounds or serotonin hydrochloride (Sigma) as positive control, was diluted with assay buffer ((HBSS), 20 mM HEPES, 1.3 mM calcium chloride, 0.5 mM magnesium chloride and 0.4 mM magnesium sulfate were contained, pH7.4) to appropriate concentration.
The forced expression cells were washed with assay buffer, and 100 μL/well of fluorescent calcium indicator (Fluo-4 NW Calcium Assay Kit) was added and incubated in 5% CO2 incubator at 37° C. After incubation, 50 μL/well of each test compound was added, and the concentration of intracellular calcium was measured as fluorescent signal with FlexStation (registered mark) II (Molecular Devices). The data was analyzed by nonlinear regression and sigmoidal dose-response curve fitting using GraphPad PRISM 4.0, and values of EC50 (concentration of the compound producing half the maximal effect of the compound) were calculated. The data was presented as mean value (n=2).

In test [2] the target is T2, human dopamine D2 receptor (Homo sapiens, UniProt P14416).
T2 construct: expressed in transfected cells
Briefly: Stimulating activities of human dopamine D2 receptor, [35S]GTPγS binding to hD2R#7 (HEK293) membrane homogenates. The class given is biochemical. The protocol: Identification Test of Stimulating Activities on Human Dopamine D2 Receptor
The cells, which were grown to confluence in 150 mm dishes (IWAKI), were harvested with isotonic buffer (50 mM Tris (Sigma), 2 mM ethylenediamine-tetraacetic acid (Invitrogen), and 125 mM sodium chloride (Wako Pure Chemicals), pH 7.4) and centrifuged at 1880×g and 4° C. for 10 minutes, and the cell pellets were then suspended in isotonic buffer. After being subjected to one cycle of freezing and thawing, the cells were centrifuged at 1880×g and 4° C. for 10 minutes, and the cell pellets were suspended in isotonic buffer. The cells were centrifuged at 1880×g and 4° C. for 10 minutes, and the cell pellets were suspended in isotonic buffer and homogenate buffer (10 mM sodium bicarbonate (Nacalai) and 5 mM ethylenediamine-tetraacetic acid, pH 7.5). The volume ratio of isotonic-to-homogenate buffer was 2. The cells were sonicated and centrifuged at 1880×g and 4° C. for 10 minutes, and the supernatants were ultracentrifuged at 80000×g and 4° C. for 30 minutes. The final cell pellets were suspended in homogenate buffer containing protease inhibitor cocktail (Nacalai) and stored at −80° C. until use. The protein concentration was determined using BCA Protein Assay Kit (Pierce) in accordance with the manufacturer's instructions.
The stimulating activities of human dopamine D2 receptor was determined by measuring the binding potential of [^35S]-guanosine 5′-[gamma-thio]triphosphate ([^35S]GTPγS, PerkinElmer) according to the method described by Newman-Tancredi A. et al. (Naunyn-Schmiedeberg's Arch Pharmacol, 1999, vol. 359, pp. 447-453) with a minor modification. Test compounds and dopamine hydrochloride (Fluka) as positive control were dissolved in dimethyl sulfoxide (CARLBIOCHEM), resulting in 30 mM. The both compounds were diluted with assay buffer (50 mM Tris, 100 mM sodium chloride, 5 mM magnesium chloride (Nacalai), 1 mM ethylenediamine-tetraacetic acid, 1 mM dithiothreitol (Wako Pure Chemicals), 10 μM guanosine diphosphate (Wako Pure Chemicals) and 0.5% bovine serum albumin (Sigma), pH 7.4) to a final concentration of 100 pM (only test compounds), 1 nM, 10 nM, 100 nM, 1 μM, 10 μM and 100 μM (only dopamine hydrochloride). The above membrane homogenates and [^35S]GTPγS were diluted with assay buffer to a final concentration of 0.06 mg/mL and 0.6 nM, respectively. The serial diluted compounds (50 μL), the diluted membrane homogenates (50 μL) and the diluted [^35S]GTPγS (50 μL) were mixed on multi-screen 96-well plate (Millipore) and shaken lightly at room temperature for 60 minutes. The reaction was terminated by vacuum filtration with three times washes of ice-cold wash buffer (50 mM Tris, 100 mM sodium chloride, 5 mM magnesium chloride, and 1 mM ethylenediamine-tetraacetic acid, pH 7.4). After drying the bottoms of the plate at 60° C., MicroScinti-40 (PerkinElmer) (30 μL) was added in the plate. The tops of the plate were sealed by TopSeal-A (PerkinElmer), and the radioactivity was determined in a TopCount NXT (registered mark)(PerkinElmer) after shaking lightly for 5-10 minutes. The data was analyzed by nonlinear regression and sigmoidal dose-response curve fitting using GraphPad PRISM 4.0 (GraphPad Software), and values of EC50 (concentration of the compound producing half the maximal effect of the compound) were calculated. The data was presented as mean value (n=2).
For orientation: GTPγS is a poorly hydrolysed GTP analogue; its binding reports G protein activation.

Test [3] relates to unilateral 6-hydroxydopamine-lesioned hemi-Parkisonian rats. Nature of the test: Contralateral rotational behavior in unilateral 6-hydroxydopamine-lesioned hemi-parkinsonian rats. The class given is in vivo, rat. Conditions: orally 10 mg/kg, mean value; for Total number of rotations: contralateral rotations up to 24 hours after administration; for Duration: measured up to 24 hours after administration, duration of rotational response. The protocol:
6-OHDA was dissolved at 2 mg/mL in a physiolosical saline solution containing 0.2% L-ascorbic acid. Desipramine was dissolved at 10 mg/mL in a physiolosical saline solution in a hot-water bath. Apomorphine was dissolved at 0.1 mg/mL in a physiolosical saline solution. Ropinirole was dissolved in distilled water. Test compounds were dissolved in a solution containing 2% DMA, 100 or 200 mol % hydrochloric acid, and 98% of a 0.5% methyl cellulose solution. […] (Eur J Pharmacol, 2000, vol. 408, P. 249-255) with a minor modification. Male Sprague-Dawley rats (6-weeks-old, Charles River Laboratories Japan Inc.) were anaesthetized with intraperitoneal somnopentyl (45 mg/kg) injection and placed in a stereotaxic frame (Narishige). In order to prevent 6-OHDA-induced damage of noradrenergic neurons, desipramine (25 mg/kg) was intraperitoneally injected 30 minutes before the 6-OHDA injection. After the bregma identification via a middle calvarial incision, the skull was drilled using a dental drill at the site of 6-OHDA injection. The lesion was made by injecting 6-OHDA (8 μg in 4 μL at a speed of 1 μL/minute) unilaterally into the left medial forebrain bundle by using a injection cannula (30 gauge needle) connected to a microsyringe (Hamilton) (the lesion coordinates; A/P −2.5 mm, L/M −1.8 mm, and V/D −8.0 mm, from the bregma point and surface of the skull). The cannula was carefully removed from the animal after keeping placed on the lesion site for 5 minutes. The skull was filled its hole with dental cement, disinfected, and the scalp incision was surgically sutured. Animals recovered from anesthesia were housed as usual until the day of the experiment. Three weeks after the lesion, rats were tested on the basis of their contralateral rotational behavior (single rotation was defined as a 360° turn) in response to 0.1 mg/kg apomorphine given subcutaneously. For behavioral observation, rats were placed in plastic cylinders of a diameter of 30 cm, and its contralateral rotational behaviors were videotaped and quantified by rat-rotation auto counting system R-RACS (Kissei Wellcom). On the experimental day, animals were fasted overnight, and test compounds were orally administrated at doses of 10 mg/kg. The drug potency was measured until up to 24 hours after administration as the number of contralateral rotation. […] Total number of rotations and the duration of the response in experimental period were presented as mean value. As comparative example, ropinirole as non-ergot dopamine D2 receptor agonist, was examined in a similar fashion.

The mark [4] stands for this setting: [35S]GTPγS binding, membrane homogenates, mean value (n=2), read-out: EC50.

SMILES strings stand for the structures. Like-named read-outs stand apart in the source and are kept apart here.

T1 sequence (P41595 whole entry): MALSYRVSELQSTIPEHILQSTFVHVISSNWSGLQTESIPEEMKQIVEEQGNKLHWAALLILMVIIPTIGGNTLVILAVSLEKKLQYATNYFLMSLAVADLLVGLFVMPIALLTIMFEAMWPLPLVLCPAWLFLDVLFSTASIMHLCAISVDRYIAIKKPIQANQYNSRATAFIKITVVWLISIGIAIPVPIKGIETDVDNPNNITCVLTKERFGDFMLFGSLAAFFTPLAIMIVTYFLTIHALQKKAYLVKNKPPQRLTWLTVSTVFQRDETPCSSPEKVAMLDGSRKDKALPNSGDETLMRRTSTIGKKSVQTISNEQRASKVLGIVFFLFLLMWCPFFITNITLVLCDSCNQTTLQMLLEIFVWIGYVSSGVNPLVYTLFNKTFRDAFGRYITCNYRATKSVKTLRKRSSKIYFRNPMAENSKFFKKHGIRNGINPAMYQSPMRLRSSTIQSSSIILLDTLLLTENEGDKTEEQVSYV
T2 sequence (P14416 whole entry): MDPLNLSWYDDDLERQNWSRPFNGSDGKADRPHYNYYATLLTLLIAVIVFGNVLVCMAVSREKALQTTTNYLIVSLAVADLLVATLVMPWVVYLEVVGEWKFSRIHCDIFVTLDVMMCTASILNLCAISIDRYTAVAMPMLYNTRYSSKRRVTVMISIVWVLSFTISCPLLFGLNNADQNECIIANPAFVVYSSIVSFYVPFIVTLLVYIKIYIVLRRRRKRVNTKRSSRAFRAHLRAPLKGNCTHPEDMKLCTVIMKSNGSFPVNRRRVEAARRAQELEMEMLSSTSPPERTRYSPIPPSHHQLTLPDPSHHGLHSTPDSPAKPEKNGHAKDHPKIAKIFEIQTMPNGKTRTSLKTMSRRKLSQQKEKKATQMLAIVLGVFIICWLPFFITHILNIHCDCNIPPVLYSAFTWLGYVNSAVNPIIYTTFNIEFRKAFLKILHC

On to `CCCN1C[C@@H](NC(=O)N(C)CCc2ccccc2)C[C@@H]2Cc3nc(N)ncc3C[C@H]21` (relative stereo) [Compound 1-11], for which the EC50 (commonly the concentration at which the effect is half-maximal) was over 10 µM in test [1] and 19 nM in test [2] (setting [4]).

For `CCCN1C[C@@H](NC(=O)N(C)CCOC)C[C@@H]2Cc3nc(N)ncc3C[C@H]21` (relative stereo) [Compound 1-12], the EC50 in test [1] is over 10 µM; in test [2] (setting [4]), 43 nM.

On to `CCCN1C[C@@H](NC(=O)NC)C[C@@H]2Cc3nc(N)ncc3C[C@H]21` (relative stereo) [Compound 1-13], for which the EC50 in test [1] is over 10 µM; in test [2] (setting [4]) it was 161 nM.

In the case of `CCCN1C[C@@H](NC(=O)N(C)C2CC2)C[C@@H]2Cc3nc(N)ncc3C[C@H]21` (relative stereo) [Compound 1-16], the values for the EC50 in test [1] and in test [2] (setting [4]) were over 10 µM and 93 nM, respectively.

In the case of `CCCN1C[C@@H](NC(=O)N(CCc2ccccc2)CCN(C)C)C[C@@H]2Cc3nc(N)ncc3C[C@H]21` (relative stereo) [Compound 1-23, 3-[(5aR*,8S*,9aR*)-2-amino-6-propyl-5,5a,6,7,8,9,9a,10-octahydropyrido[2,3-g]quinazolin-8-yl]-1-[2-(dimethylamino)ethyl]-1-(2-phenylethyl)urea], the EC50 in test [1] is over 10 µM; in test [2] (setting [4]) it was 223 nM. Also, the “Total number of rotations” value in test [3] was determined as 9184.0. Besides, the Duration in test [3] worked out at 870.0 minuets.

For `CCCN1C[C@@H](NC(=O)N(CC)CCN2CCCCC2)C[C@@H]2Cc3nc(N)ncc3C[C@H]21` (relative stereo) [Compound 1-25, 3-[(5aR*,8S*,9aR*)-2-amino-6-propyl-5,5a,6,7,8,9,9a,10-octahydropyrido[2,3-g]quinazolin-8-yl]-1-ethyl-1-[2-(piperidin-1-yl)ethylurea], the EC50 in test [1] is over 10 µM; in test [2] (setting [4]) it was 126 nM. Moreover, in test [3], the “Total number of rotations” value was found to be 5025.0. The Duration in test [3] is reported as 621.3 minuets.

Regarding `CCCN1C[C@@H](NC(=O)N(CC)CCN2CCc3ccccc3C2)C[C@@H]2Cc3nc(N)ncc3C[C@H]21` (relative stereo) [Compound 1-33], the results for the EC50 in test [1] and in test [2] (setting [4]) were over 10 µM and 93 nM, respectively.

As to `CCCN1C[C@@H](NC(=O)N2CCCCC2)C[C@@H]2Cc3nc(N)ncc3C[C@H]21` (relative stereo) [Compound 1-34], the EC50 was over 10 µM in test [1] and 63 nM in test [2] (setting [4]).

With `CCCN1C[C@@H](NC(=O)N(C)CCc2ccncc2)C[C@@H]2Cc3nc(N)ncc3C[C@H]21` (relative stereo) [Compound 1-36], the EC50 in test [1] is over 10 µM; in test [2] (setting [4]) it was 34 nM.

Consider `CCCN1C[C@@H](NC(=O)N2CCc3ccccc3C2)C[C@@H]2Cc3nc(N)ncc3C[C@H]21` (relative stereo) [Compound 1-37], for which the EC50 in test [1] was over 10 µM; in test [2] (setting [4]), 10 nM.

For `CCCN1C[C@@H](NC(=O)N(C)CCN(C)c2ccccc2)C[C@@H]2Cc3nc(N)ncc3C[C@H]21` (relative stereo) [Compound 1-39], the EC50 is over 10 µM in test [1] and 39 nM in test [2] (setting [4]).

As to `CCCN1C[C@@H](NC(=O)N(CC)CCN(C)CCOC)C[C@@H]2Cc3nc(N)ncc3C[C@H]21` (relative stereo) [Compound 1-41], the EC50 in test [1] was over 10 µM; in test [2] (setting [4]) it was 116 nM.

`CCCN1C[C@@H](CO)C[C@@H]2Cc3nc(N)ncc3C[C@H]21` (relative stereo) [compound 1, [(5aR*,8S*,9aR*)-2-amino-6-propyl-5,5a,6,7,8,9,9a,10-octahydropyrido[2,3-g]quinazolin-8-yl]methanol, reference compound]: the EC50 in test [2] (setting [4]) came out at 2900 nM.

In the case of `CCCN1C[C@@H](NC(=O)N(CCN(C)C)CC(C)C)C[C@@H]2Cc3nc(N)ncc3C[C@H]21` [Compound 1-3, 3-[(5aR,8S,9aR)-2-amino-6-propyl-5,5a,6,7,8,9,9a,10-octahydropyrido[2,3-g]quinazolin-8-yl]-1-[2-(dimethylamino)ethyl]-1-(2-methylpropyl)urea], in test [3], the “Total number of rotations” value was 3610.5 and the Duration was 387.5 minuets.

In test [2], `CCCN1C[C@@H](NC(=O)N(C)C)C[C@@H]2Cc3nc(N)ncc3C[C@H]21` [Compound 1-5] yielded an EC50 of 9 nM.

As to `CCCN(CCC)CCc1cccc2c1CC(=O)N2` [Ropinirole, ropinirole, reference compound], in test [3], the “Total number of rotations” value is on record as 276.3 and the Duration was found to be 61.3 minuets.

These data come from patent publication US9585885B2, “Substituted pyrido[2,3-g]quinazolines as dopamine D2 receptor agonists” (KISSEI PHARMACEUTICAL CO., LTD., priority 2012, dated 2017).
